In one assay the target is T1, C3/C5-epimerase (HS:42) (Campylobacter jejuni, UniProt F2X7E5).
T1 construct: gene HS42.11
The assay can be described thus: coupled turnover of purified […] to […], D2O exchange at C3 and C5, ESI-MS. The assay is classed as biochemical. The settings on record: 5.0 mM NADPH and HS:42 C4-reductase, pH 8.0, 40 h.

Assay [1] has as its system C4-reductase (HS:51/HS:53). Description: NADPH oxidation at […] nm. It is filed as biochemical, Campylobacter jejuni. The settings on record: apparent; 300 μM NADPH, 50 mM HEPES pH 7.5, 30 °C; substrate made with Cj1427.

T1 sequence (F2X7E5 entry or part of it): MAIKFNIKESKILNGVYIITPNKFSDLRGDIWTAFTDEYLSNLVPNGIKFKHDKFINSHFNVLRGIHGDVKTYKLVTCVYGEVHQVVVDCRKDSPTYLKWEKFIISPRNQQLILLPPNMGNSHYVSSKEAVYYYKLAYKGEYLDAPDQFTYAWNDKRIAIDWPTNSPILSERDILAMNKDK

As a reminder, the Km is the concentration of substrate that gives half-maximal velocity. With `Nc1nc2c(ncn2[C@@H]2O[C@H](COP(=O)(O)OP(=O)(O)O[C@H]3O[C@H]([C@H](O)CO)C(=O)[C@H](O)[C@@H]3O)[C@@H](O)[C@H]2O)c(=O)[nH]1` [compound 22, GDP-D-glycero-4-keto-α-D-lyxo-heptose], the “coupled turnover of purified 22 to 30, D2O exchange at C3 and C5, ESI-MS” value at C3/C5-epimerase (HS:42) is “Epimerases from the same serotype of each C4-reductase were used for each reaction”. The Km in assay [1] was found to be 53 ± 6 µM.
